# Source: article PMC6510487 (Chemosensors (Basel, Switzerland), 2018)
# Ends that are not written are not given here.
# Key:
# [1] = tested on: human SIRPalpha; test: Fluorescence response of CD47 mimetic probe upon hSIRPalpha binding; settings: 150 μM probe, 50 μM human SIRPalpha
# [2] = tested on: human SIRPalpha; test: Microscale thermophoresis binding of CD47 mimetic probe to hSIRPalpha; settings: 150 μM probe, 50 μM human SIRPalpha
sequence,measurement,setting,value
EVTELTREGE [CD47 mimetic probe],fluorescence enhancement upon target binding to hSIRPalpha,[1],did not exhibit fluorescence enhancement
same,binding to hSIRPalpha by MST,[2],could bind to hSIRPalpha
